Patent US20130059324A1, “SYSTEMS AND METHODS FOR MECHANICALLY STRAINED CELL CULTURE” (THE UNIVERSITY OF KANSAS, priority 2010, published 2013)

How the values were obtained:
A549 cells [1] = assay: Drug exposure with or without simulated forces, 6-well Bioflex plates, live cell count and exponential growth model; assay type: cell-based, human
Protocol: Treatments 1, 2 and 3 served as unstretched controls for Treatments 4, 5 and 6, respectively. For each cell line and drug, all treatments were independently repeated at least 3 times on different days, with 3 replicates per Treatments 1 and 4 (n=9) and 5 replicates per all other treatments (n=15).
Cells were passaged in 75 cm2 culture flasks at 37° C. in 5% CO2, and trypsinized using TryplE™ Express (Gibco) containing phenol red.
Cells were plated in 6-well Bioflex® plates (Flexcell® International Corporation, Hillsborough, N.C.). Each well of the plate has a flexible elastic membrane coated with a thin layer of type I collagen. Type I collagen was chosen since it more accurately represents the physiology of lung tumor cells in vivo. […] In Treatments 1, 2 and 3, NCI-H358 and A549 cells were plated at a density of 100,000 and 20,000 cells/well in 2 ml of corresponding media, respectively. For treatments involving simulated forces (Treatments 4-6), NCI-H358 and A549 cells were plated at a density of 170,000 and 35,000 cells/well, respectively.
After allowing the cells to adhere to the membrane for 24 hours, the plates assigned for simulated forces were stretched using the FX-4000 Tension plus unit (Flexcell® International Corporation, Hillsborough, N.C.). The Flexcell unit was configured to deliver an alternating positive and negative pressure beneath the cell culture surfaces. Negative pressure pulls the culture surface down over a stationary Delrin post on the baseplate, delivering a uniform biaxial strain to the cells, and subsequent application of positive pressure releases this distension (FIGS. 9A and 9B.) In this manner, the alternating positive and negative pressure simulates forces experienced during respiration. Culture plates experiencing forces were fitted with rubber gaskets and placed on circular loading stations in the baseplate.
After 72 hours of initial seeding, one of the five drugs was added to Treatments 3 and 6 of each cell line. […] To insure comparability, an aliquot of 1 ml of media without the drug was added to each well in Treatments 2 and 5. After adding the drug or 1 ml of media, the plates from Treatments 5 and 6 were placed back on the baseplate and subjected to the same force profile as before for the remaining 72 hours. Plates from Treatments 2 and 3 (without forces) were placed in the same incubator for the remaining 72 hours.
Cells were trypsinized and counted at the end of day 3 in Treatments 1 and 4, and at the end of day 6 in the other treatments, using a Beckman Coulter Vi-Cell Analyzer (Beckman Coulter, Fullerton, Calif.). To examine changes in morphology, microphotographs of A549 and NCI-H358 cells were taken at the end of Treatments 1, 2, 4 and 5 using an Olympus inverted microscope and a 10× objective.
The standard exponential cell growth model (28) was used to describe the changes in live cell counts after each treatment. According to this model, the cell count (e.g., N) at a particular time (e.g., t), is given by the equation:
N* is the initial cell count and λ is the cell growth rate. For each cell line, the following cell growth rates were estimated: λ=growth rate in the absence of forces and drugs, λd=growth rate in the presence of a particular drug but no forces, λXf=growth rate in the presence of forces but no drugs; and λfd=growth rate in the presence of forces and a particular drug. The growth rates λd and λfd were estimated for each tested drug. Using these growth rates and the exponential growth model, the final cell counts were mathematically modeled for each treatment under various conditions (FIG. 8). For each cell line, a linear regression model that combined the information from the 5 investigated drugs was built using Stata Statistical Software (StataCorp LP, Texas) after log-transforming the six equations listed in FIG. 8. The regression coefficients in the model were the growth rates.

[2] = test system: H358 cells grown as 3D tissues; assay: 3D culture antiproliferative MTS assay in collagen with and without mechanical forces; assay type: cell-based; settings: Homo sapiens, NCI-H358, 72 h, H358 3D in collagen, 72 hours exposure
Protocol: Effects of mechanical forces on engineered 3-dimensional tumor tissues were also studied, An experiment was conducted with paclitaxel, which was tested in the presence and absence of mechanical forces in H358 cells (bronchioalveolar carcinoma) grown as 3D tissues in type 1 rat tail collagen scaffold. The cells were seeded at a density of 4×10^6 cells per well in 6-well Bioflex collagen I plates and cultured in PRMI 1640 medium The forces that were tested were configured to mimic normal respiration. After 24 hours of seeding, cells were stretched from 0% to a maximum of 20% elongation for 2 seconds followed by 2 seconds of rest continuously for 4 days. Control group included cells that were plated in collagen at the same densities and incubated for 5 days without mechanical forces. […] As a note, a computing system similar to FIG. 6 can be used to control an experiment system in order to provide predetermined cycles of mechanical strain and relaxation.
Following 24 hours of stetching, paclitaxel was added to H358 cells in ten 1:3 dilutions with starting concentrations 100 μM. […] Dose response curves were plotted and corresponding IC50 values (concentration of the drug at which 50% of the cells are inhibited) were calculated for stretched and un-stretched conditions using Graphpad Prism software.

A549 cells [3] = assay: Prototype 96-well plate, MTS assay with and without mechanical forces; assay type: cell-based, human; settings: A549, drug at IC90, 24 hours, 490 nm
Protocol: (§1) The prototype plate was read using the Biotek plate reader at the wavelength of 490 nm until the media only wells absorbance reached 1.0. For the +M group plate, 30 ul of MTS was added to the assigned wells and kept in the incubator for the same amount of time that required for the −M group to develop and read at the same wavelength.

H358 cells = assay: as above; assay type: cell-based, human; settings: drug at IC90, 24 hours, 490 nm
Protocol: as §1

## CC(=O)O[C@H]1C(=O)[C@@]2(C)[C@H]([C@H](OC(=O)c3ccccc3)[C@]3(O)C[C@H](OC(=O)[C@H](O)[C@@H](NC(=O)c4ccccc4)c4ccccc4)C(C)=C1C3(C)C)[C@]1(OC(C)=O)CO[C@@H]1C[C@@H]2O [Paclitaxel]
A549 cells [1]; drug at IC90 for 3 days, 20% maximum strain, 15 cycles/minute
  Growth Rates, With forces: −0.038 per day
A549 cells [1]; drug at IC90 for 3 days, no forces, negative = reduction in viable cell count
  Growth Rates, Without forces: 0.133 per day
A549 cells [1]; percentage reduction in live cell counts, 3-day drug exposure at IC90, no forces
  Effectiveness of The Drug, Without forces (E): 76.9%
A549 cells [1]; percentage reduction in live cell counts, 3-day drug exposure at IC90, simulated forces
  Effectiveness of The Drug, With forces (Ef): 57.5%
[2]; absence of mechanical stress
  IC50: 22.6 µM
[2]; cells experiencing mechanical stress (0-20% elongation)
  IC50: 0.2 µM
A549 cells [3]; mechanical forces
  MTS absorbance after 24 hours of drug exposure, With forces (Ef): 0.293
A549 cells [3]; no forces
  MTS absorbance after 24 hours of drug exposure, Without forces (E): 0.567
H358 cells; mechanical forces
  MTS absorbance after 24 hours of drug exposure, With forces (Ef): 0.345
H358 cells; no forces
  MTS absorbance after 24 hours of drug exposure, Without forces (E): 0.522
